Measured values from US20050049204A1, “Compounds for the treatment of flaviviridae infections” (priority 2003, published 2005).
Like-named read-outs stand apart in the source and are kept apart here.

Legend:
[1] = tested on: HCV-replicon RNA-containing Huh7 cells (HCV RNA); assay: HCV replicon assay: HCV RNA quantified by Q-RT-PCR after 96 h of compound exposure; assay type: cell-based, hepatitis C virus (HCV); conditions: for EC90: read-out: Corrected HCV RNA EC90
Experimental: (§1) Incubation times differed according to the type of experiment.

[2] = tested on: rRNA in HCV-replicon RNA-containing Huh7 cells; assay: rRNA levels in HCV replicon cells (cellular toxicity), Q-RT-PCR after 96 h; conditions: 100 μM
Experimental: HCV replicon cells were seeded in the presence of test compound at approximately 10^3 cells per well in a 96-well plate and incubated for 96 hours. rRNA and HCV RNA were quantified by Q-RT-PCR. ●: HCV RNA levels; ◯: rRNA levels; ▾: HCV RNA levels after correction (=subtraction of rRNA) for cellular toxicity. […] The plots shown are the mean results of at least three independent experiments. EC90 values as given in Table 1 are read from the HCV curves corrected for cellular toxicity.
HCV-replicon RNA-containing Huh7 cells (Clone A cells; Apath, LLC, St. Louis, Mo.) were kept in exponential growth in DMEM media (high glucose, no pyruvate) containing 10% fetal bovine serum, 1× non-essential amino acids (100 units/ml), penicillin-streptomycin (100 μg/ml), glutamine (0.292 mg/ml), and G418 (1,000 μg/ml). Antiviral assays were performed in the same medium without G418. […] Cells were seeded in a 6-well plate at 10^5 cells per well. Candidate antiviral compounds were tested as described (Stuyver, et al. “A ribonucleoside analogue that blocks the replication of bovine viral diarrhea and hepatitis C viruses in culture” Antimicrob. Agents Chemother., January 2003, 47 (1), 244-254). Incubation times differed according to the type of experiment. At the end of the incubation step, cells were counted using the trypan-blue exclusion method, and total cellular RNA was isolated (Rneasy 96 kit, Qiagen, CA). Replicon RNA and an internal control (TaqMan Ribosomal RNA Control Reagents, Applied Biosystems, CA) were amplified in a single-step, multiplex RT-PCR protocol, as recommended by the manufacturer and as described (Stuyver, et al. “A ribonucleoside analogue that blocks the replication of bovine viral diarrhea and hepatitis C viruses in culture” Antimicrob. Agents Chemother., January 2003, 47 (1), 244-254).
Replicon cells were incubated in the absence or presence of these anti-metabolites for 96 hours, after which intracellular rRNA and HCV RNA levels were quantified (Table 1).

[3] = tested on: HCV replicon RNA in Huh7 cells; assay: HCV RNA levels in replicon cells over a 7-day period; assay type: cell-based, hepatitis C virus (HCV)
[4] = tested on: HCV replicon RNA in Huh7 cells; assay: Reversal studies with natural nucleosides: HCV RNA; assay type: cell-based, hepatitis C virus (HCV)
Experimental: as §1
(§2) Cells were incubated with the test compound and, simultaneously, the natural ribo- or 2′-deoxy nucleosides (adenosine, guanosine (G), cytidine (C), uridine (U), 2′-deoxycytidine (dC), 2′-deoxyuridine, thymidine, 2′-deoxyguanosine (dG), and 2′-deoxyadenosine) (Table 2).

[5] = tested on: rRNA in HCV replicon Huh7 cells; assay: Reversal studies with natural nucleosides: rRNA; assay type: cell-based; conditions: for log10 reduction rRNA: no nucleoside
Experimental: as §1, §2

[6] = tested on: HCV replicon-containing Huh7 cell line; assay: Dynamics of replicon cell growth (cell count) over a 7-day period
[7] = seven-day assay, tested at approximately EC90 value

Row | SMILES | log reduction at 10 µM ([1]; Hepatitis C virus, Huh-7, 10 μM, 96 h, corrected by subtraction of rRNA, read-out: Corrected HCV RNA log10 reduction at 10 μM) | log reduction at 100 µM ([1]; Hepatitis C virus, Huh-7, 100 μM, 96 h, corrected by subtraction of rRNA, read-out: Corrected HCV RNA log10 reduction at 100 μM) | log reduction at 100 µM ([1]; Hepatitis C virus, Huh-7, 100 μM, 96 h, read-out: Log10 RNA reduction (100 μM) HCV) | EC90 ([1]; Hepatitis C virus, Huh-7, 96 h, read from HCV curves corrected for rRNA reduction) [µM] | Log10 RNA reduction (100 μM) rRNA [2] [log10] | reducing the HCV RNA levels ([3]; 100 μM, 7-day period) | log10 reduction HCV including natural nucleoside ([4]; 25 μM + C at 50 μM) [log10] | log10 reduction rRNA including natural nucleoside ([5]; 25 μM + C at 50 μM) [log10] | log10 reduction rRNA ([5]; 25 μM) [log10] | effect on cell proliferation ([6]; 100 μM, 7-day period) | Corrected HCV RNA log10 reduction at 10 μM ([1]; 10 μM, 96 h, corrected by subtraction of rRNA) [log10] | Corrected HCV RNA log10 reduction at 100 μM ([1]; 100 μM, 96 h, corrected by subtraction of rRNA) [log10] | EC90 ([1]; Hepatitis C virus, Huh-7, 96 h) [µM] | inhibition of the HCV RNA replication [3, 7] | log10 reduction HCV including natural nucleoside ([4]; 100 μM + U at 50 μM) [log10] | log10 reduction HCV ([4]; 100 μM, no nucleoside) [log10] | log10 reduction rRNA including natural nucleoside ([5]; 100 μM + U at 50 μM) [log10] | log10 reduction rRNA ([5]; 100 μM) [log10] | effect on cell growth [6, 7]
1 | C[C@@]1(O)[C@H](O)[C@@H](CO)O[C@H]1n1ccc(N)nc1=O [2′C—CH3—C, 2′-C-methyl-cytidine] | 1 | 2.21 ± 0.47 | 2.2 ± 0.52 | 10.4 | −0.02 ± 0.05 | very potent | 0.48 ± 0.02 | 0.14 ± 0.04 | −0.01 ± 0.02 | no |  |  |  |  |  |  |  |  | 
2 | NC(=O)c1[nH]nc([C@@H]2O[C@H](CO)[C@@H](O)[C@H]2O)c1O [pyrazofurin] |  |  |  |  | 0.42 ± 0.03 |  |  |  |  |  | 1.16 ± 0.21 | 1.46 ± 0.08 | 3.8 | very potent inhibition | 0.35 ± 0.03 | 1.88 ± 0.05 | −0.01 ± 0.04 | 0.42 ± 0.03 | minimal effect
